{"source": "patent US7994113B2", "about": "“βGBP, compositions comprising βGBP, and related methods and uses thereof” (priority 2007, dated 2011)", "key": {"[1]": {"test_system": "activated T cells", "details": "Rabinovich et al., 1997, 1998, 1999; cited from earlier work"}, "[2]": {"test_system": "MCF10A mammary ductal cells", "experiment": "Growth rate and Annexin V apoptosis of naïve MCF10A cells", "type": "cell-based"}, "[3]": {"test_system": "MCF-7 breast cancer cells", "experiment": "Growth rate of naïve MCF-7 cells", "type": "cell-based"}, "[4]": {"test_system": "akt mRNA", "experiment": "Northern blot analysis of akt mRNA", "type": "cell-based", "details": "for akt mRNA level: 30 nM Hu-r-βGBP"}, "[5]": {"test_system": "ERK", "type": "cell-based"}, "[6]": {"test_system": "ST4 (Human malignant T cell leukaemia) cells", "experiment": "ST4 tumour growth in SCID mice, subcutaneous βGBP", "type": "in vivo", "details": "SCID mice injected s.c. with 5×10^6 ST4 cells; Hu-r-βGBP s.c. day 1 to day 16", "procedure": "5×10^6 ST4 (Human malignant T cell leukaemia) cells were injected subcutaneously at day 0. Hu-r-βGBP was administered from day 1 to day 16 by subcutaneous injection.\nFemale SCID mice were housed under standard conditions. Mice were divided into four groups of four. At age 6 weeks 5×10^6 ST4 (Human malignant T cell leukaemia) cells were injected subcutaneously (day 0).\nHu-r-βGBP was obtained as described in Example 1.\nβGBP was administered from day 1 to day 16 by individual daily subcutaneous injection. Each group of mice received a different dosage of βGBP. 0 ng/mouse (control), 20 ng/mouse, 200 ng/mouse or 400 ng/mouse\nTumour size was assessed at day 42 or day 90 by calliper measurement."}, "[7]": {"test_system": "BT474 breast cancer cells", "experiment": "Growth rate and apoptosis of BT474 cells treated with Hu-r-βGBP", "type": "cell-based", "details": "Hu-r-βGBP 15 or 30 nM added at hour 3 after seeding", "procedure": "(§1) Cell culture: BT474 cells were cultured in DMEM/F12 medium with 10% fetal calf serum (FCS) (Invitrogen, UK) and 20 μg/ml insulin (Sigma, UK); the SKBR3 cells were grown in DMEM medium (Invitrogen UK) plus 10% FCS. Cultures were incubated at 37° C. in a humidified atmosphere of 5% CO2 in air.\n(§2) 1×10^5 cells were seeded per 25 cm^2 flask, or 3×10^5 per 75 cm^2 flask. Sufficient numbers of flasks were seeded in parallel to allow for individual flasks to be consumed in the process of monitoring cell numbers (i.e. growth rates), apoptosis, PI3K activity, akt mRNA levels, Akt protein levels and phosphorylated Akt (P-Akt) protein levels as discussed below. Unless otherwise indicated results correspond to one flask of cells.\n(§3) Growth rates: Cells were removed from the flasks by trypsinisation and counted in a haemocytometer to assess cell numbers at time points of 1, 2, 3, 4, and 5 days for BT474 cells, SKBR3 cells, MCF10A^V12Ras cells and MCF10A^CTx cells. MCF10A cells were monitored at 1, 2, 3, and 4 days. Cell numbers were determined in triplicate. […]\n(§4) Cytofluorimetry: Apoptosis was monitored using four criteria as outlined below. […]\n(§5) Redistribution of plasma membrane phosphatidylserine was assessed using Annexin V-FITC (Pharmingen, San Diego, Calif.). […]\n(§6) Caspase 3 activity was measured by cleavage of non fluorescent PhiPhiLux to a fluorescent product (OncoImmunin, Mass.). […]"}, "[8]": {"test_system": "SKBR3 breast cancer cells", "experiment": "Growth rate and apoptosis of SKBR3 cells treated with Hu-r-βGBP", "type": "cell-based", "details": "Hu-r-βGBP 15 or 30 nM added at hour 3 after seeding", "procedure": "as §1, §2, §3, §4, §5, §6"}, "[9]": {"test_system": "MCF10A^V12Ras cells", "experiment": "Growth rate and Annexin V apoptosis of MCF10A^V12Ras cells", "type": "cell-based", "details": "Hu-r-βGBP 15 or 30 nM added at hour 3"}, "[10]": {"test_system": "MCF10A^CTx cells", "type": "cell-based"}, "[11]": {"test_system": "MCF-7^CTx cells", "type": "cell-based"}, "[12]": {"test_system": "SW480 colon cancer cells", "experiment": "Growth rate of SW480 colon cancer cells with Hu-r-βGBP", "type": "cell-based", "procedure": "(§7) To confirm these observations three colon cancer cell lines were investigated, SW480, SW620 and LoVo. Cells were grown in culture and incubated with βGBP at varying concentrations. […] Concentrations as low as 1-2 nM have been observed as effective in inducing apoptosis (FIG. 6). It is possible that in some circumstances even lower concentrations of βGBP may be effective.\n(§8) Cell culture: SW480, SW620 and LoVo colon cancer cells were grown in Leibowitz L-15 medium with 10% fetal bovine serum in sealed flasks at 37° C. Hu-r-βGBP was added 3 hrs after seeding cells at a concentration of 1 nM or 2 nM. Control cells were grown without βGBP.\n(§9) Growth rates: Cell numbers were measured over a time course of 5 days. Cell numbers were assessed at 0, 1, 2, 3, 4, and 5 days for each cell type incubated in the presence of Hu-r-βGBP. Cell numbers were assessed in triplicate by counting in a haemocytometer as discussed above in Example 1 and compared with cell numbers for control cells grown without βGBP."}, "[13]": {"test_system": "SW620 colon cancer cells", "experiment": "Growth rate of SW620 colon cancer cells with Hu-r-βGBP", "type": "cell-based", "procedure": "as §7, §8, §9"}, "[14]": {"test_system": "LoVo colon cancer cells", "experiment": "Growth rate of LoVo colon cancer cells with Hu-r-βGBP", "type": "cell-based", "procedure": "as §7, §8, §9"}, "[15]": {"test_system": "class IA PI3K", "experiment": "PI3 kinase assay: immunoprecipitated enzyme from treated cells, PIP3 by competitive ELISA", "type": "cell-based", "details": "for PI3K activity: 30 nM Hu-r-βGBP"}, "[16]": {"test_system": "Akt", "experiment": "Western blot of phosphorylated (Ser473) Akt and total Akt protein", "type": "cell-based", "details": "30 nM Hu-r-βGBP", "procedure": "Western blot analysis: Cells were lysed in 50 mM Tris pH7.4. 150 mM NaCl, 1% TritonX-100, 1 mMPMSF, 2.5 μg/ml leupeptin, 1% aprotinin, 10 mM sodium fluoride, 1 mM sodium vanadate (Sigma, UK). 50 μg of protein were loaded onto 12% polyacrylamide gels. Phosphorylated Akt was detected using 1:1000 anti-phospho-Akt (Ser473) antibody (Cell Signalling Technology, Boston, Mass.) and total Akt1/2 protein was probed with 1:1000 anti-Akt1/2 (H136) (Santa Cruz, Santa Cruz, Calif.). Secondary antibodies conjugated to horseradish peroxidase (HRP) (GE Healthcare, UK) were used at 1:1000 dilution and visualised by enhanced chemiluminescence (GE Healthcare, UK). Actin (Sigma, UK) was used as a loading control."}, "[17]": {"test_system": "breast cancer, ovarian cancer, oral cancer, prostate cancer and leukaemia cells", "experiment": "Screen of pro-apoptotic responses to βGBP in a range of cancer types", "type": "cell-based", "procedure": "As described above βGBP is known to inhibit growth and/or promote apoptosis in cells from a range of cancer types.\nIn breast cancer, ovarian cancer, oral cancer, prostate cancer and leukaemia cells tested for pro-apoptotic responses to βGBP, the effective dose in cell culture was 15-30 nM."}, "[18]": {"details": "MCF10A, MCF10A^V12Ras and MCF10A^CTx cells"}}, "note": "Like-named read-outs stand apart in the source and are kept apart here.", "data": [{"substance": "GAL-1: homodimers formed from βGBP, a complex with lectin-like characteristics", "values": [{"measurement": "threshold concentration for apoptotic activity", "setting": "[1]", "value": 4, "unit": "µg/mL"}]}, {"substance": "cholera toxin [reference compound]", "values": [{"measurement": "cell proliferation", "setting": "[2]", "value": "boosted"}, {"measurement": "cell proliferation", "setting": "[3]", "value": "accelerated cell proliferation"}, {"measurement": "akt gene expression", "setting": "[4]", "value": "accentuated akt gene expression"}, {"measurement": "akt mRNA levels", "setting": "[4]", "value": "more markedly expressed"}, {"measurement": "active ERK levels", "setting": "[5]", "value": "raised active ERK levels"}]}, {"substance": "βGBP: Human recombinant β-galactoside binding protein expressed in E. coli; negative cell cycle regulator, anti-proliferative cytokine", "values": [{"measurement": "appearance of tumours", "setting": "[6]", "value": "totally prevent the appearance of tumours"}, {"measurement": "effect on cell replication and cell death", "setting": "[7]", "value": "virtually no effect on cell replication until, after 2-3 generation cycles, abrupt cell death was triggered"}, {"measurement": "effect on cell replication and cell death", "setting": "[8]", "value": "virtually no effect on cell replication until, after 2-3 generation cycles, abrupt cell death was triggered"}, {"measurement": "response of cell proliferation to βGBP", "setting": "[2]; naïve MCF10A cells, Hu-r-βGBP 15 or 30 nM added at hour 3", "value": "minor effect"}, {"measurement": "apoptosis after inhibition of PI3K activity and loss of akt gene function", "setting": "[2]; naïve normal-like MCF10A cells, 30 nM Hu-r-βGBP, Annexin V at day three", "value": "did not lead to apoptosis"}, {"measurement": "response of cell proliferation to βGBP", "setting": "[9]", "value": "abrupt cell death after 2-3 cell replication cycles"}, {"measurement": "response of cell proliferation to βGBP", "setting": "[10]", "value": "abrupt cell death after 2-3 cell replication cycles"}, {"measurement": "effect on cell growth", "setting": "[3]; naïve MCF-7 cells, 20 nM Hu-r-βGBP added at hour 3", "value": "growth inhibitory effect"}, {"measurement": "cell death in response to βGBP", "setting": "[11]", "value": "succumbed to total death ahead of the naive counterparts"}, {"measurement": "concentration effective in inducing apoptosis", "setting": "[12]; SW480 cells, Hu-r-βGBP added 3 hrs after seeding, 5 days", "value": "1 to 2", "unit": "nM"}, {"measurement": "effective concentration relative to other cancer cell lines (times lower)", "setting": "[12]; SW480 colon cancer cells versus other cancer cell lines", "value": "15 to 30", "unit": "times"}, {"measurement": "concentration effective in inducing apoptosis", "setting": "[13]; SW620 cells, Hu-r-βGBP added 3 hrs after seeding, 5 days", "value": "1 to 2", "unit": "nM"}, {"measurement": "effective concentration relative to other cancer cell lines (times lower)", "setting": "[13]; SW620 colon cancer cells versus other cancer cell lines", "value": "15 to 30", "unit": "times"}, {"measurement": "concentration effective in inducing apoptosis", "setting": "[14]; LoVo cells, Hu-r-βGBP added 3 hrs after seeding, 5 days", "value": "1 to 2", "unit": "nM"}, {"measurement": "effective concentration relative to other cancer cell lines (times lower)", "setting": "[14]; LoVo colon cancer cells versus other cancer cell lines", "value": "15 to 30", "unit": "times"}, {"measurement": "PI3K activity", "setting": "[15]; BT474 and SKBR3 cells, already present at hour six, maintained throughout observation", "value": "downregulation of PI3K activity"}, {"measurement": "PI3K activity", "setting": "[15]; MCF10A, MCF10A^V12Ras and MCF10A^CTx cells, delay from 6 to 24 hours with V12 Ras", "value": "brought down and maintained PI3K activity below basal levels"}, {"measurement": "decrease of PI3K activity below basal levels at which akt gene expression was negated", "setting": "[15]; MCF-7^CTx cells, 20 nM Hu-r-βGBP, 10 nM wortmannin or 20 nM LY294002 added at hour 3 from seeding", "value": "~35", "unit": "%"}, {"measurement": "akt mRNA level", "setting": "[4]; BT474 and SKBR3 cells, within one day from addition", "value": "virtually undetectable"}, {"measurement": "akt mRNA level", "setting": "[4]; [18]", "value": "virtual absence of akt mRNA"}, {"measurement": "akt gene expression", "setting": "[4]; MCF-7^CTx cells, 20 nM Hu-r-βGBP", "value": "negated"}, {"measurement": "phosphorylated Akt and Akt protein", "setting": "[16]; BT474 and SKBR3 cells, preceded the apoptotic process", "value": "loss of phosphorylated Akt, and loss of Akt protein"}, {"measurement": "Akt function (phosphorylated Akt and total Akt protein)", "setting": "[16]; [18]", "value": "loss of Akt function"}, {"measurement": "effective dose in cell culture for pro-apoptotic responses", "setting": "[17]", "value": "15 to 30", "unit": "nM"}, {"measurement": "ERK phosphorylation", "setting": "[5]", "value": "no changes in ERK phosphorylation"}]}]}
